Assay: Open label dose-ranging study 402-C-0902 in type 2 diabetic patients with stage 3b-4 CKD
Format: in vivo, human
Set-up: ΔSBP, change from baseline / ΔDBP, change from baseline: unit not given beside the values
[1] = 10 mg once daily 85 days, CKD Stage 3b, N = 20
[2] = 10 mg once daily 85 days, CKD Stage 4, N = 4
[3] = 15 mg once daily 85 days, CKD Stage 3b/4, N = 48
[4] = 15 mg once daily 85 days, CKD Stage 3b, N = 26
[5] = 15 mg once daily 85 days, CKD Stage 4, N = 22
[6] = 30 mg once daily 85 days, CKD Stage 3b/4, N = 12
[7] = 30 mg once daily 85 days, CKD Stage 3b, N = 3
[8] = 30 mg once daily 85 days, CKD Stage 4, N = 9

COC(=O)[C@]12CCC(C)(C)C[C@H]1[C@H]1C(=O)C=C3[C@@]4(C)C=C(C#N)C(=O)C(C)(C)[C@@H]4CC[C@@]3(C)[C@]1(C)CC2 [Bardoxolone methyl, methyl-2-cyano-3,12-dioxooleana-1,9-dien-28-oic acid]
ΔDBP, change from baseline [1]: −0.3 ± 1.3 | ΔSBP, change from baseline [1]: −4.2 ± 3.4 | ΔDBP, change from baseline [2]: 3.6 ± 4.5 | ΔSBP, change from baseline [2]: 6.1 ± 6.7 | ΔDBP, change from baseline [3]: −1 ± 1.2 | ΔSBP, change from baseline [3]: 1.1 ± 2.3 | ΔDBP, change from baseline [4]: −1.3 ± 1.5 | ΔSBP, change from baseline [4]: −2.2 ± 3.3 | ΔDBP, change from baseline [5]: −0.6 ± 1.9 | ΔSBP, change from baseline [5]: 5 ± 2.8 | ΔDBP, change from baseline [6]: 3.2 ± 2.2 | ΔSBP, change from baseline [6]: 7.2 ± 6.2 | ΔDBP, change from baseline [7]: −1.8 ± 3.9 | ΔSBP, change from baseline [7]: −0.4 ± 13.8 | ΔDBP, change from baseline [8]: 4.7 ± 2.5 | ΔSBP, change from baseline [8]: 9.7 ± 7.3 | Blood pressure changes (2.5 to 30 mg, 85 consecutive days, amorphous dispersion formulation): no dose-related trend in blood pressure changes or change at any individual dose level was noted | AE, SOC Card: Cardiac failure congestive, patients n (%) (SDD 2.5 mg QD 85 days, N = 14): 0 | AE, SOC Card: Oedema peripheral, patients n (%) (SDD 2.5 mg QD 85 days, N = 14): 0 | AE, SOC Genrl: Oedema peripheral, patients n (%) (SDD 2.5 mg QD 85 days, N = 14): 0 | AE, SOC Metab: Oedema peripheral, patients n (%) (SDD 2.5 mg QD 85 days, N = 14): 0 | AE, SOC Resp: Dyspnoea exertional, patients n (%) (SDD 2.5 mg QD 85 days, N = 14): 1 (7) | AE, SOC Resp: Dyspnoea, patients n (%) (SDD 2.5 mg QD 85 days, N = 14): 0 | SAE, SOC Card: Cardiac failure congestive, patients n (%) (SDD 2.5 mg QD 85 days, N = 14): 0 | AE, SOC Card: Cardiac failure congestive, patients n (%) (SDD 5 mg QD 85 days, N = 25): 0 | AE, SOC Card: Oedema peripheral, patients n (%) (SDD 5 mg QD 85 days, N = 25): 0 | AE, SOC Genrl: Oedema peripheral, patients n (%) (SDD 5 mg QD 85 days, N = 25): 3 (12) | AE, SOC Metab: Oedema peripheral, patients n (%) (SDD 5 mg QD 85 days, N = 25): 0 | AE, SOC Resp: Dyspnoea exertional, patients n (%) (SDD 5 mg QD 85 days, N = 25): 0 | AE, SOC Resp: Dyspnoea, patients n (%) (SDD 5 mg QD 85 days, N = 25): 0 | SAE, SOC Card: Cardiac failure congestive, patients n (%) (SDD 5 mg QD 85 days, N = 25): 0 | AE, SOC Card: Cardiac failure congestive, patients n (%) (SDD 10 mg QD 85 days, N = 28): 1 (4) | AE, SOC Card: Oedema peripheral, patients n (%) (SDD 10 mg QD 85 days, N = 28): 1 (4) | AE, SOC Genrl: Oedema peripheral, patients n (%) (SDD 10 mg QD 85 days, N = 28): 5 (18) | AE, SOC Metab: Oedema peripheral, patients n (%) (SDD 10 mg QD 85 days, N = 28): 0 | AE, SOC Resp: Dyspnoea exertional, patients n (%) (SDD 10 mg QD 85 days, N = 28): 0 | AE, SOC Resp: Dyspnoea, patients n (%) (SDD 10 mg QD 85 days, N = 28): 0 | SAE, SOC Card: Cardiac failure congestive, patients n (%) (SDD 10 mg QD 85 days, N = 28): 1 (4) | AE, SOC Card: Cardiac failure congestive, patients n (%) (SDD 15 mg QD 85 days, N = 50): 0 | AE, SOC Card: Oedema peripheral, patients n (%) (SDD 15 mg QD 85 days, N = 50): 1 (2) | AE, SOC Genrl: Oedema peripheral, patients n (%) (SDD 15 mg QD 85 days, N = 50): 3 (6) | AE, SOC Metab: Oedema peripheral, patients n (%) (SDD 15 mg QD 85 days, N = 50): 0 | AE, SOC Resp: Dyspnoea exertional, patients n (%) (SDD 15 mg QD 85 days, N = 50): 0 | AE, SOC Resp: Dyspnoea, patients n (%) (SDD 15 mg QD 85 days, N = 50): 0 | SAE, SOC Card: Cardiac failure congestive, patients n (%) (SDD 15 mg QD 85 days, N = 50): 0 | AE, SOC Card: Cardiac failure congestive, patients n (%) (SDD 30 mg QD 85 days, N = 14): 1 (7) | AE, SOC Card: Oedema peripheral, patients n (%) (SDD 30 mg QD 85 days, N = 14): 0 | AE, SOC Genrl: Oedema peripheral, patients n (%) (SDD 30 mg QD 85 days, N = 14): 3 (21) | AE, SOC Metab: Oedema peripheral, patients n (%) (SDD 30 mg QD 85 days, N = 14): 1 (7) | AE, SOC Resp: Dyspnoea exertional, patients n (%) (SDD 30 mg QD 85 days, N = 14): 0 | AE, SOC Resp: Dyspnoea, patients n (%) (SDD 30 mg QD 85 days, N = 14): 1 (7) | SAE, SOC Card: Cardiac failure congestive, patients n (%) (SDD 30 mg QD 85 days, N = 14): 1 (7)
